Results on 7 compounds are retold here after US20240269136A1, “EGFR INHIBITOR AND PERK ACTIVATOR IN COMBINATION THERAPY AND THEIR USE FOR TREATING CANCER” (Genentech, Inc., priority 2021, published 2024).

Read-outs that look alike come from different tables or passages of the source.

In this assay the test system is PC9 cells. The assay is described as follows: CellTiter-Glo Luminescent Cell Viability Assay, PC9 cells, EGFR inhibitors and PERK activators alone and in combination. Type of assay: cell-based. As to the method: PC9 cells were seeded in replicates in 96-well plates and allowed to attach overnight. The following day cells were treated with the indicated compounds or compound combinations at the indicated concentrations. Cell survival was measured 72 h post-treatment using CellTiter-Glo Luminescent Cell Viability Assay (Promega, G7572). Quantification of the fold decrease in cell viability was determined for single agent activity and for combinations relative to the DMSO-treated control (as shown in Table 1A and 1B). Mean (u) and standard deviation (o) was determined for biological triplicates using Microsoft Excel.

Setting [1] is: combination: CCT-020312 2 μM + EGFRi 0.01 μM, PC9, 72 h, relative to DMSO.
Setting [2] is: combination: CCT-020312 2 μM + EGFRi 0.1 μM, PC9, 72 h, relative to DMSO.
Setting [3] is: combination: DHBDC 50 μM + EGFRi 0.01 μM, PC9, 72 h, relative to DMSO.
[4] abbreviates: combination: DHBDC 50 μM + EGFRi 0.1 μM, PC9, 72 h, relative to DMSO.
The mark [5] stands for this setting: combination: IPA 1 μM + EGFRi 0.01 μM, PC9, 72 h, relative to DMSO.
The mark [6] stands for this setting: combination: IPA 1 μM + EGFRi 0.1 μM, PC9, 72 h, relative to DMSO.
Where [7] appears, read: combination: MK-28 20 μM + EGFRi 0.01 μM, PC9, 72 h, relative to DMSO.
[8] abbreviates: combination: MK-28 20 μM + EGFRi 0.1 μM, PC9, 72 h, relative to DMSO.
The mark [9] stands for this setting: single agent, EGFRi 0.01 μM, PC9, 72 h, relative to DMSO, mean of biological triplicates.
[10] abbreviates: single agent, EGFRi 0.1 μM, PC9, 72 h, relative to DMSO, mean of biological triplicates.
The mark [11] stands for this setting: combination: CCT-020312 2 μM + EGFRi 1 μM, PC9, 72 h, relative to DMSO.
Setting [12] is: combination: DHBDC 50 μM + EGFRi 1 μM, PC9, 72 h, relative to DMSO.
The mark [13] stands for this setting: combination: IPA 1 μM + EGFRi 1 μM, PC9, 72 h, relative to DMSO.
Setting [14] is: combination: MK-28 20 μM + EGFRi 1 μM, PC9, 72 h, relative to DMSO.
The mark [15] stands for this setting: single agent, EGFRi 1 μM, PC9, 72 h, relative to DMSO, mean of biological triplicates.

With `COc1cc2ncnc(Nc3ccc(F)c(Cl)c3)c2cc1NC(=O)/C=C/CN1CCCCC1` [Dacomitinib, (E)-N-[4-(3-chloro-4-fluoro-anilino)-7-methoxy-quinazolin-6-yl]-4-(1-piperidyl)but-2-enamide], under setting [1], the “CCT-020312 + Low EGFRi, fold decrease in cell viability (μ)” value (“CCT-020312 + Low EGFRi, fold decrease” for short) amounted to 731.1 fold. In addition, the “CCT-020312 + High EGFRi, fold decrease in cell viability (μ)” value (from here on “CCT-020312 + High EGFRi, fold decrease”) under setting [2] is 1325.3 fold. The “DHBDC + Low EGFRi, fold decrease in cell viability (μ)” value (shortened to “DHBDC + Low EGFRi, fold decrease”) under setting [3] is listed as 66.5 fold. Also, the “DHBDC + High EGFRi, fold decrease in cell viability (μ)” value (from here on “DHBDC + High EGFRi, fold decrease”) under setting [4] was found to be 85.2 fold. For the same compound, under setting [5], the “IPA + Low EGFRi, fold decrease in cell viability (μ)” value (from here on “IPA + Low EGFRi, fold decrease”) came to 79.2 fold. Under setting [6], the “IPA + High EGFRi, fold decrease in cell viability (μ)” value (shortened to “IPA + High EGFRi, fold decrease”) worked out at 275.2 fold. In addition, under setting [7], the “MK-28 + Low EGFRI, fold decrease in cell viability (μ)” value (“MK-28 + Low EGFRI, fold decrease” for short) is 170.8 fold. In addition, under setting [8], the “MK-28 + High EGFRi, fold decrease in cell viability (μ)” value (“MK-28 + High EGFRi, fold decrease” for short) came out at 241.8 fold. Further, under setting [9], the “Low EGFRi, fold decrease in cell viability (μ)” value was 13.6 fold. Further, the “High EGFRi, fold decrease in cell viability (μ)” value under setting [10] amounted to 14.5 fold.
Regarding `Cc1cc(C(=O)Nc2nc3cccc(Cl)c3n2[C@@H]2CCCCN(C(=O)/C=C/CN(C)C)C2)ccn1` (racemic) [Nazartinib, N-[7-chloro-1-[rac-(3R)-1-[rac-(E)-4-(dimethylamino)but-2-enoyl]azepan-3-yl]benzimidazol-2-yl]-2-methyl-pyridine-4-carboxamide], the “CCT-020312 + Low EGFRi, fold decrease” value under setting [2] is given as 255.4 fold. The “CCT-020312 + High EGFRi, fold decrease” value under setting [11] amounted to 1514.1 fold. Further, the “DHBDC + Low EGFRi, fold decrease” value under setting [4] stood at 25.8 fold. Moreover, under setting [12], the “DHBDC + High EGFRi, fold decrease” value worked out at 53.6 fold. Moreover, the “IPA + Low EGFRi, fold decrease” value under setting [6] is 44.0 fold. The “IPA + High EGFRi, fold decrease” value under setting [13] is recorded as 205.5 fold. Also, the “MK-28 + Low EGFRI, fold decrease” value under setting [8] was found to be 130.5 fold. Also, the “MK-28 + High EGFRi, fold decrease” value under setting [14] worked out at 421.8 fold. Moreover, the “Low EGFRi, fold decrease in cell viability (μ)” value under setting [10] amounted to 6.3 fold. Further, the “High EGFRi, fold decrease in cell viability (μ)” value under setting [15] was found to be 15.0 fold.
For the compound `C=CC(=O)N1CCC(Oc2cc3c(Nc4ccc(Cl)c(Cl)c4F)ncnc3cc2OC)CC1` [Poziotinib, 1-[4-[4-(3,4-dichloro-2-fluoro-anilino)-7-methoxy-quinazolin-6-yl]oxy-1-piperidyl]prop-2-en-1-one], under setting [1], the “CCT-020312 + Low EGFRi, fold decrease” value turned out to be 716.9 fold. Also, the “CCT-020312 + High EGFRi, fold decrease” value under setting [2] is reported as 1168.4 fold. Also, the “DHBDC + Low EGFRi, fold decrease” value under setting [3] was determined as 74.1 fold. The “DHBDC + High EGFRi, fold decrease” value under setting [4] is on record as 88.4 fold. Moreover, the “IPA + Low EGFRi, fold decrease” value under setting [5] came out at 107.6 fold. In addition, under setting [6], the “IPA + High EGFRi, fold decrease” value was 132.4 fold. Further, the “MK-28 + Low EGFRI, fold decrease” value under setting [7] amounted to 181.5 fold. Besides, under setting [8], the “MK-28 + High EGFRi, fold decrease” value was found to be 295.2 fold. For the same compound, the “Low EGFRi, fold decrease in cell viability (μ)” value under setting [9] turned out to be 14.3 fold. Further, the “High EGFRi, fold decrease in cell viability (μ)” value under setting [10] was 15.4 fold.
Turning to `C=CC(=O)Nc1cc(Nc2nccc(-c3cn(C)c4ccccc34)n2)c(OC)cc1N(C)CCN(C)C` [Osimertinib, N-[2-[2-(dimethylamino)ethyl-methyl-amino]-4-methoxy-5-[[4-(1-methylindol-3-yl)pyrimidin-2-yl]amino]phenyl]prop-2-enamide], the “CCT-020312 + High EGFRi, fold decrease” value is 836.5 fold; the “CCT-020312 + Low EGFRi, fold decrease” value is given as 38.4 fold; the “DHBDC + High EGFRi, fold decrease” value was found to be 64.2 fold; the “DHBDC + Low EGFRi, fold decrease” value is 13.6 fold. The “High EGFRi, fold decrease in cell viability (μ)” value was determined as 12.6 fold; the “IPA + High EGFRi, fold decrease” value came out at 67.3 fold; the “IPA + Low EGFRi, fold decrease” value was determined as 9.9 fold; the “Low EGFRi, fold decrease in cell viability (μ)” value came out at 2.1 fold. Moreover, the “MK-28 + High EGFRi, fold decrease” value was determined as 220.3 fold and the “MK-28 + Low EGFRI, fold decrease” value was found to be 72.7 fold.
`C=CC(=O)Nc1cccc(Oc2nc(Nc3ccc(N4CCN(C)CC4)cc3OC)ncc2Cl)c1` [WZ-4002, N-[3-[5-chloro-2-[2-methoxy-4-(4-methylpiperazin-1-yl)anilino]pyrimidin-4-yl]oxyphenyl]prop-2-enamide]: the “CCT-020312 + Low EGFRi, fold decrease” value under setting [2] came out at 49.8 fold. In addition, under setting [11], the “CCT-020312 + High EGFRi, fold decrease” value was determined as 1482.6 fold. Besides, under setting [4], the “DHBDC + Low EGFRi, fold decrease” value amounted to 13.2 fold. Under setting [12], the “DHBDC + High EGFRi, fold decrease” value was 52.0 fold. Under setting [6], the “IPA + Low EGFRi, fold decrease” value is 10.3 fold. The “IPA + High EGFRi, fold decrease” value under setting [13] worked out at 106.0 fold. The “MK-28 + Low EGFRI, fold decrease” value under setting [8] is reported as 120.3 fold. Further, the “MK-28 + High EGFRi, fold decrease” value under setting [14] was 422.1 fold. In addition, the “Low EGFRi, fold decrease in cell viability (μ)” value under setting [10] is on record as 2.6 fold. The “High EGFRi, fold decrease in cell viability (μ)” value under setting [15] was found to be 13.5 fold.
Regarding `C=CC(=O)Nc1cccc(Nc2nc(Nc3ccc(N4CCN(C(C)=O)CC4)cc3OC)ncc2C(F)(F)F)c1` [Rociletinib, N-[3-[[2-[4-(4-acetylpiperazin-1-yl)-2-methoxy-anilino]-5-(trifluoromethyl)pyrimidin-4-yl]amino]phenyl]prop-2-enamide], the “CCT-020312 + Low EGFRi, fold decrease” value under setting [2] is on record as 5.1 fold. In addition, under setting [11], the “CCT-020312 + High EGFRi, fold decrease” value is given as 446.1 fold. Further, the “DHBDC + Low EGFRi, fold decrease” value under setting [4] is recorded as 5.3 fold. Besides, the “DHBDC + High EGFRi, fold decrease” value under setting [12] is on record as 88.0 fold. Also, the “IPA + Low EGFRi, fold decrease” value under setting [6] worked out at 6.4 fold. Under setting [13], the “IPA + High EGFRi, fold decrease” value was 142.3 fold. Further, the “MK-28 + Low EGFRI, fold decrease” value under setting [8] came out at 49.2 fold. Further, the “MK-28 + High EGFRi, fold decrease” value under setting [14] was determined as 268.9 fold. The “Low EGFRi, fold decrease in cell viability (μ)” value under setting [10] is on record as 1.3 fold. The “High EGFRi, fold decrease in cell viability (μ)” value under setting [15] is on record as 7.0 fold.
Regarding `C=CC(=O)N[C@H]1C=C(C)c2c(-c3cnc4ccccc4c3)c3c(N)ncnc3n2C1` (racemic) [TAS-6417, N-[rac-(8S)-4-amino-6-methyl-5-(3-quinolyl)-8,9-dihydropyrimido[5,4-b]indolizin-8-yl]prop-2-enamide], the “CCT-020312 + Low EGFRi, fold decrease” value under setting [1] is on record as 505.3 fold. Moreover, the “CCT-020312 + High EGFRi, fold decrease” value under setting [2] stood at 1235.6 fold. The “DHBDC + Low EGFRi, fold decrease” value under setting [3] was 50.9 fold. For the same compound, the “DHBDC + High EGFRi, fold decrease” value under setting [4] is 71.8 fold. Under setting [5], the “IPA + Low EGFRi, fold decrease” value came to 72.3 fold. The “IPA + High EGFRi, fold decrease” value under setting [6] is listed as 89.5 fold. Also, the “MK-28 + Low EGFRI, fold decrease” value under setting [7] came out at 158.3 fold. For the same compound, under setting [8], the “MK-28 + High EGFRi, fold decrease” value came to 301.6 fold. In addition, under setting [9], the “Low EGFRi, fold decrease in cell viability (μ)” value worked out at 10.5 fold. Moreover, the “High EGFRi, fold decrease in cell viability (μ)” value under setting [10] is 13.6 fold.
